This is an account of results in a melting point compilation (Tetko et al.; mined from patent text by program, amines drawn as free bases though some values may be those of a salt).

The melting point is the temperature of the solid-liquid transition. `CN1CC(=O)N2[C@H](c3ccc4occc4c3)c3[nH]c4ccccc4c3C[C@@H]2C1=O` gave a melting point of 291 to 293 °C.
For the compound `Nc1cccc(S(=O)(=O)NC2(CO)CCCC2)c1`, the melting point lay in the range of 130 to 132 °C.
Under `COCCN(c1cccc2cc(-c3nccs3)[nH]c12)S(=O)(=O)c1cccs1` stands 113 to 114 °C; under `O=C1NC(=S)CCC1N1Cc2c(cccc2[N+](=O)[O-])C1=S` (centres undefined), 248 to 250 °C.
Under `O=C(O)CCCCOC(c1ccccc1)(c1ccccc1)c1ccccc1` stands 146 to 148 °C.
Regarding `C[C@H]1CCCC(C)(C)[C@@H]1[C@H](O)c1ccc(C(F)(F)F)cc1`, the melting point was 63 to 66 °C.
The compound `Cc1cc(C)nc(-n2nc(S(=O)(=O)Nc3c(Cl)cccc3Cl)nc2N)n1` showed a melting point of 306 to 312 °C.
For `COCCOc1ccc(CCCNS(=O)(=O)c2ccccc2[N+](=O)[O-])c(Oc2ncc(C(F)(F)F)cc2Cl)c1`, the melting point came out at 126 °C.
As for `COC(=O)c1ccc(OCCCCC2Cc3c(c(OC)c(OC)c(OC)c3OC)C2)cc1`, the melting point was in the range of 68 to 71 °C.
As for `CCOP(=O)(OCC)c1nc(N2CCCCC2)nc(N2CCCCC2)n1`, the melting point lay within 103 to 105 °C.
For `CC1(C)CC(=O)Nc2ccc(-c3cccc(Cl)c3)cc21`, the melting point fell in the range of 211 to 215 °C.
Under `COc1cccc(C(=O)c2cccc(F)c2)c1` stands 56 to 67 °C; under `O=c1c(-c2nnn[nH]2)cnc2c(Cl)cccn12`, 313 to 315 °C.
The compound `Cc1cc(C)c(C(=O)O)c(C)c1C` displayed a melting point of 164 to 167 °C.
In the case of `CN1CC(CNC(=S)NC(=O)c2ccccc2)CC2c3cccc4[nH]cc(c34)CC21` (centres undefined), the melting point fell in the range of 153 to 155 °C.
Under `CCOCc1ncccc1CN(CCn1ccc2oc(C)cc2c1=O)Cc1ccc2c(c1)N(C)C(=O)C(C)(C)C(=O)N2CC` stands 104 to 106 °C; under `CCC(O)P(=O)(OCc1ccccc1)OCc1ccccc1` (centres undefined), 81 to 82 °C; under `COC(=O)Nc1c(C(=O)OC)[nH]c2c(C)ccc(C)c12`, 184 to 185 °C.
In turn, `Cn1nnnc1-c1cn(C)c2ccc(F)cc2c1=O` came in with a melting point of 260 to 261 °C.
Take `CCC(CC)N(O)C(=O)Nc1cccc(Oc2ccccc2)c1`: the melting point is 111 °C.
As for `O=C(/C=C/c1ccc(NS(=O)(=O)c2ccc(-c3ccccc3)cc2)cc1)NO`, the melting point fell in the range of 190 to 192 °C.
To `CCCn1c(=O)n(C)c(=O)c2nc(-c3ccc(/C=C/C(=O)O)cc3)[nH]c21` belongs above 300 °C.
Turning to `CCOC(=O)[C@H](Cc1c[nH]c2ccccc12)NC(=O)OCc1ccccc1`, the melting point is 80 to 83 °C.
Under `CC(C)c1cccc(C(C)C)c1NC(=O)Nc1nc(-c2ccccc2)ns1` stands 180 to 183 °C.
`O=C1CCCn2c(=O)[nH]c3cccc1c32` returned a melting point of 235 °C.
Turning to `CN(C)C=CC(=O)c1ccccc1`, the melting point is 88 to 91 °C.
Under `COc1ccc(Nc2ncnc3cc(Cl)ccc23)cc1` stands 177 to 179 °C; under `COc1cc(C=C(Br)Br)ccc1OC(C)C`, 36 to 38 °C; under `COC(=O)c1cc(C(=O)c2ncc3ccc(C(=O)OC(C)(C)C)cn23)ccc1[N+](=O)[O-]`, 170 °C.
The compound `CC1CSC2=C(O1)c1cc(-c3ccccc3)ccc1C(=O)C2=O` (centres undefined) yielded a melting point of 190 to 192 °C.
`CS(=O)(=O)N(Cc1cccnc1)c1ccc(Oc2ccccc2)cc1` displayed a melting point of 139 to 140 °C.
To `O=c1[nH]c2ncc(Br)cc2o1` belongs 229 to 230 °C; to `COc1cccc(COc2cc3c(cc2-c2cc(C=CC(=O)O)ccc2O)C(C)(C)CCC3(C)C)c1`, 113 to 115 °C; to `O=C(O)c1ccccc1NC(C(=O)O)c1ccc(Br)cc1` (centres undefined), 216 °C.
For the compound `Cn1cc(-c2ccc(C(=O)N3Cc4cccn4Cc4ccccc43)cc2)cn1`, the melting point was in the range of 200 to 201 °C.
To `Cc1csc(C(=O)C(F)(F)F)n1` belongs 77 to 81 °C.
`CNC(=O)NCCSCc1csc(CN(C)C)n1`: the melting point lay within 56 to 59 °C.
In turn, `CC(C)(C)c1cc(SCCC(=O)NNC=O)cc(C(C)(C)C)c1O` yielded a melting point of 158 to 159 °C.
For the compound `CSc1nc(C)nc2c1-c1ccc(Cl)cc1C(c1ccccc1)=NC2`, the melting point is 181 to 183 °C.
Under `CCCCc1nc(SCCO)c(C(=O)O)n1Cc1ccc(-c2ccccc2C(=O)O)cc1` stands 194 °C; under `Cc1cccnc1-c1cc2cccnc2c(=O)[nH]1`, 225 to 227 °C.
The compound `COC(=S)NCc1cn(-c2ccc(-n3cccc3)cc2)nn1` displayed a melting point of 150 °C.
Compound `COc1cccc2ccc(CC#N)cc12` registered a melting point of 47 to 48 °C.
Under `O=C(NC(=O)c1ccccc1Cl)Nc1cc(C(F)(F)F)c(Cl)cc1Br` stands 185 °C; under `COc1ccc(Sc2[nH]cc(C(=O)O)c2Sc2ccc(OC)cc2)cc1`, 159 to 162 °C.
To `CCn1c(N)c(-c2nccn2COCC[Si](C)(C)C)c(=O)c2ccc(Cl)nc21` belongs 90 °C; to `CCCc1nc2c(N)nc(C)c(C)c2n1CCCO/N=C(\C)c1ccccc1`, 125 to 127 °C; to `CC(=O)OC1COc2ccc3ncccc3c2C1` (centres undefined), 125 to 127 °C.
In turn, `Cc1c(O)ccc2oc(-c3ccc(O)cc3)cc12` registered a melting point of 221 to 222 °C.
For `CC(C)(C)C1(O)CCN(C(=O)C2c3ccccc3CCc3ccccc32)CC1`, the melting point fell in the range of 189 to 190 °C.
To `CC(=O)Oc1ccc(Cl)cc1C(=O)Cl` belongs 35 to 38 °C; to `CC#CCOc1ccc(S(=O)(=O)C2(C(=O)O)CCN(Cc3ccc(C)cc3)CC2)cc1`, 188 °C.
Under `Clc1ccc(-c2ncn(CC3CC3)c2-c2ccncc2)cc1Cl` stands 146 °C; under `C#CCOc1cc2c(cc1OC)C(=C(C#N)C(=O)OCC)CC2(C)C`, 132 to 136 °C.
In the case of `COC(=O)c1cnc(N)nc1OC`, the melting point is 221 °C.
As to `C=C(Cl)CC1(C)Cc2cc(O)c(Cl)c(Cl)c2C1=O` (centres undefined), the melting point was 183 °C.
Compound `O=C(NCc1cc(C(F)(F)F)cc(C(F)(F)F)c1)c1oc(=O)c2ncccc2c1-c1ccccc1` registered a melting point of 129 to 130 °C.
With `COc1ccc(-c2nc3c(OC)cccc3s2)cc1`, the melting point lay in the range of 86 to 88 °C.
Under `CNc1cc(S(=O)(=O)c2ccccc2)cc(Br)n1` stands 145 to 148 °C.
Under `CCc1ccc2c(c1)C(=O)CCCC(=O)N2` stands 138 to 140 °C; under `COc1cc(OC)cc(-c2ncn(C)c2-c2ccc(OC(F)F)c(N)c2)c1`, 99.2 to 101 °C; under `CC(=O)c1nc(-c2ccc(Cl)nc2)[nH]c1C`, 239 to 240 °C.
Under `O=C(Nc1c(Cl)cccc1Cl)N1CCN(c2cnccn2)CC1` stands 177 to 179 °C; under `CCCCCCCCCCOc1ccc(-c2ccc(C#CCCC(C)OC(C)=O)cc2)cc1` (centres undefined), 80 to 82 °C.
The compound `CO/N=C(/C(N)=O)c1ccccc1Oc1ccccc1` registered a melting point of 98 to 99 °C.
Under `CC1(C)CCC(C)(C)c2cc(C(=O)c3ccccc3C=O)ccc21` stands 145 °C; under `CCCCC12CCC3=C(CCc4cc(OC)ccc43)C1=CCC2=O` (centres undefined), 53 to 55 °C; under `CCOC(=O)c1cnccc1NC(=O)Cc1c(F)cccc1Cl`, 114 to 116 °C.
Under `CN1C(NCCCO)=NC(c2ccccc2)c2cc(Cl)ccc21` (centres undefined) stands 165 to 166 °C; under `COC(=O)ON1C(=O)c2ccccc2C1=O`, 129 to 135 °C; under `CCNc1cccc2c1OC1(CC1)C2=O`, 80.6 °C.
Under `COc1csc(C)c1N` stands 61 to 63 °C.
In turn, `c1cc(OC2CN3CCC2CC3)no1` (centres undefined) returned a melting point of 80 to 81 °C.
Under `CC(=O)C(Cc1c(CCN(C)C)[nH]c2ccccc12)(c1ccccc1)c1ccccc1` stands 135 to 137 °C; under `O=c1[nH]c2ncc(-c3ccnc(O)c3)nc2n1CC1CCCCC1`, 311 to 313 °C.
Under `COc1cccc(-c2c3cccc(OC(C)=O)c3c(OC(C)=O)c3c(OC(C)=O)cccc23)c1` stands 278 °C; under `CCC(=O)C(C#N)Cc1cc(Cl)cc(Cl)c1` (centres undefined), 59 to 60 °C; under `CCN(CC)C(=O)Oc1cc(C(C)C)ccc1C1(O)C(=O)c2ccccc2C1=O`, 103 to 106 °C.
Under `CCOC(=O)c1cn(C)nc1OCc1ccccc1` stands 66 to 67 °C; under `CN(Cc1ccc(COc2cccc3c2CN(C2CCC(=O)NC2=O)C3=O)cc1)c1ccccc1` (centres undefined), 201 to 203 °C.
Take `CCOC(=O)c1cnc2c(cnn2Cc2ccncc2)c1O`: the melting point was 140 °C.
Consider `COc1cc2nc(N3CCOCC3)n3cnnc3c2cc1OC`, for which the melting point lay within 216 to 218 °C.
The compound `O=C1c2ccc(Cl)cc2C(=O)N1c1ccc(Cl)cc1OC(F)(F)F` yielded a melting point of 156 to 157 °C.
`O=c1oc(-c2ccc(OCCO)cc2)cc(O)c1SCCc1ccccc1` gave a melting point of 123 to 125 °C.
To `O=Cc1c2ccsc2cc2c1ccc1ccccc12` belongs 178 to 180 °C; to `O=c1c2c(OCC3CO3)cc(OCC3CO3)cc2oc2ccc3ccccc3c12` (centres undefined), 198 to 200 °C; to `CC(=O)n1cc(Cl)c(-c2cc(Cl)cc(Cl)c2)n1`, 125 °C.
The compound `CCCCCCCC(=O)N1CCc2nnc(NN)cc2C1` had a melting point of 164 to 166 °C.
Under `CC1(C)CC(=O)c2cc(C#N)c(NC3CCCC3)nc2C1` stands 154 to 156 °C; under `Cn1nc(C(=O)Nc2ccc(OCC(C)(C)C)c(C#N)c2)cc1-c1ccccc1`, 156 to 157 °C.
As for `COc1ccc2ccc(N3C(=O)c4ccccc4C3OC(=O)N3CCN(C)CC3)nc2n1` (centres undefined), the melting point was 218 °C.
Under `CC(C)CCC(C)NC1=NS(=O)(=O)c2cc(Cl)ccc2N1` (centres undefined) stands above 220 °C; under `COc1ccc(CN(CCN(C)C)c2ccc(C(=O)O)cn2)cc1`, 188 to 190 °C.
Under `CC(=O)N1Cc2cccc3[nH]cc(c23)C1` stands 205 to 206 °C.
